Source: patent US5726186A, “Pentacyclic compounds, intermediates, processes, compositions, and methods” (Eli Lilly and Company, priority 1996, dated 1998)
Each block holds one molecule with its values, some of them ahead of it.

Legend:
uterus = experiment: Wet uterine weight in ovariectomized rats (post-menopausal model); format: in vivo, female Sprague Dawley rats (ovariectomized); conditions: Rattus norvegicus, 96 h, oral, daily for 4 days, OVX rats, read-out: Uterine Weight (% increase vs. OVX)
Procedure: In the examples illustrating the methods, a post-menopausal model was used in which effects of different treatments upon circulating lipids were determined.
(§1) Seventy-five day old female Sprague Dawley rats (weight range of 200 to 225 g) were obtained from Charles River Laboratories (Portage, Mich.). The animals were either bilaterally ovariectomized (OVX) or exposed to a Sham surgical procedure at Charles River Laboratories, and then shipped after one week. Upon arrival, they were housed in metal hanging cages in groups of 3 or 4 per cage and had ad libitum access to food (calcium content approximately 0.5%) and water for one week. Room temperature was maintained at 22.2°±1.7° C. with a minimum relative humidity of 40%. The photoperiod in the room was 12 hours light and 12 hours dark.
(§2) Dosing Regimen Tissue Collection. After a one week acclimation period (therefore, two weeks post-OVX) daily dosing with test compound was initiated. 17a-ethynyl estradiol or the test compound were given orally, unless otherwise stated, as a suspension in 1% carboxymethylcellulose or dissolved in 20% cyclodextrin. Animals were dosed daily for 4 days. Following the dosing regimen, animals were weighed and anesthetized with a ketamine: Xylazine (2:1, V:V) mixture and a blood sample was collected by cardiac puncture. The animals were then sacrificed by asphyxiation with CO2, the uterus was removed through a midline incision, and a wet uterine weight was determined.
(§3) The data presented in the Tables 1 below reflects the response of 5 to 6 rats per treatment.

[1] = tested on: Uterine Eosinophil Peroxidase (EPO); experiment: Uterine Eosinophil Peroxidase (EPO) Assay; format: in vivo, female Sprague Dawley rats (ovariectomized); parameters: Uterine EPO (V. max): unit not given here; conditions: oral, daily for 4 days, OVX rats, 450 nm
Excerpt: as §1, §2
Uterine Eosinophil Peroxidase (EPO) Assay. Uteri were kept at 4° C. until time of enzymatic analysis. The uteri were then homogenized in 50 volumes of 50 mM Tris buffer (pH-8.0) containing 0.005% Triton X-100. Upon addition of 0.01% hydrogen peroxide and 10 mM O-phenylenediamine (final concentrations) in Tris buffer, increase in absorbance was monitored for one minute at 450 nm. The presence of eosonophils in the uterus is an indication of estrogenic activity of a compound. The maximal velocity of a 15 second interval was determined over the initial, linear portion of the reaction curve.
As is expressed in the below data, estrogenicity also was assessed by evaluating the adverse response of eosinophil infiltration into the uterus.
as §3

Serum Cholesterol = experiment: Serum cholesterol analysis in ovariectomized rats; format: in vivo, female Sprague Dawley rats (ovariectomized); conditions: Rattus norvegicus, 96 h, oral, daily for 4 days, OVX rats, read-out: Serum Cholesterol (% decrease vs. OVX)
Excerpt: as §1, §2
Cholesterol Analysis. Blood samples were allowed to clot at room temperature for 2 hours, and serum was obtained following centrifugation for 10 minutes at 3000 rpm. Serum cholesterol was determined using a Boehringer Mannheim Diagnostics high performance cholesterol assay. Briefly the cholesterol was oxidized to cholest-4-en-3-one and hydrogen peroxide. The hydrogen peroxide was then reacted with phenol and 4-aminophenazone in the presence of peroxidase to produce a p-quinone imine dye, which was read spectrophotemetrically at 500 nm. Cholesterol concentration was then calculated against a standard curve. The entire assay was automated using a Biomek Automated Workstation.
as §3

Distal Femur Metaphysis = experiment: Osteoporosis test, distal femur metaphysis X-ray image analysis; format: in vivo, female Sprague Dawley rats (ovariectomized); conditions: oral, daily for 35 days, in 20% hydroxypropyl b-cyclodextrin
Excerpt: Seventy-five day old female Sprague Dawley rats (weight range of 200 to 225 g) were obtained from Charles River Laboratories (Portage, Mich.). The animals were either bilaterally ovariectomized (OVX) or exposed to a Sham surgical procedure at Charles River Laboratories, and then shipped after one week. Upon arrival, they were housed in metal hanging cages in groups of 3 or 4 per cage and had ad libitum access to food (calcium content approximately 0.5%) and water for one week. Room temperature was maintained at 22.2°±1.7° C. with a minimum relative humidity of 40%. The photoperiod in the room was 12 hours light and 12 hours dark. Following the General Preparation Procedure, infra, the rats were treated daily for 35 days (6 rats per treatment group) and sacrificed by carbon dioxide asphyxiation on the 36th day. The 35 day time period was sufficient to allow maximal reduction in bone density, measured as described herein. At the time of sacrifice, the uteri were removed, dissected free of extraneous tissue, and the fluid contents were expelled before determination of wet weight in order to confirm estrogen deficiency associated with complete ovariectomy. […] The uteri were then placed in 10% neutral buffered formalin to allow for subsequent histological analysis. The right femurs were excised and digitilized x-rays generated and analyzed by an image analysis program (NIH image) at the distal metaphysis. The proximal aspect of the tibiae from these animals were also scanned by quantitative computed tomography. In accordance with the above procedures, compounds of the present invention and ethynyl estradiol (EE2) in 20% hydroxypropyl b-cyclodextrin were orally administered to test animals. Distal femur metaphysis data presented in Tables 2 and 3 below are the results of formula I compound treatments compared to intact and ovariectomized test animals. Results are reported as percent protection relative to ovariectomy.

[2] = tested on: MCF-7 breast adenocarcinoma cells; experiment: MCF-7 Proliferation Assay (tritiated thymidine); format: cell-based; conditions: Homo sapiens, MCF7; MCF-7 cells, 48 hours, tritiated thymidine pulse 4 hours
Procedure: MCF-7 breast adenocarcinoma cells (ATCC HTB 22) were maintained in MEM (minimal essential medium, phenol red-free, Sigma, St. Louis, Mo.) supplimented with 10% fetal bovine serum […] (V/V), L-glutamine (2 mM), sodium pyruvate (1 mM), HEPES {(N-[2-hydroxyethyl]piperazine-N'-[2-ethanesulfonic acid]10 mM)}, non-essential amino acids and bovine insulin (1 ug/mL) (maintenance medium). Ten days prior to assay, MCF-7 cells were switched to maintenance medium supplemented with 10% dextran coated charcoal stripped fetal bovine serum (DCC-FBS) assay medium) in place of 10% FBS to deplete internal stores of steroids. MCF-7 cells were removed from maintenance flasks using cell dissociation medium (Ca++/Mg++ free HBSS (phenol red-free) supplemented with 10 mM HEPES and 2 mM EDTA). Cells were washed twice with assay medium and adjusted to 80,000 cells/mL. Approximately […] (8,000 cells) were added to flat-bottom microculture wells (Costar 3596) and incubated at 37° C. in a 5% CO2 humidified incubator for 48 hours to allow for cell adherence and equilibration after transfer. Serial dilutions of drugs or DMSO as a diluent control were prepared in assay medium and […] to triplicate microcultures followed by […] assay medium for a final volume of […]. After an additional 48 hours at 37° C. in a 5% CO2 humidified incubator, microcultures were pulsed with tritiated thymidine (1 uCi/well) for 4 hours. Cultures were terminated by freezing at -70° C. for 24 hours followed by thawing and harvesting of microcultures using a Skatron Semiautomatic Cell Harvester. Samples were counted by liquid scintillation using a Wallac BetaPlace b counter. Results in Table 3 below show the IC50 for certain compounds of the present invention.

SMILES: Oc1ccc2c(c1)OC(c1ccc(OCCN3CCCCC3)cc1)c1c-2sc2cc(O)ccc12 (stereo not drawn) [Example 1, 3,9-Dihydroxy-6-[4-[2-(1-piperidinyl)ethoxy]phenyl]-6-H-[1]benzothieno[3,2-c][1]benzopyran]
change in vivo at 0.1 mg/kg (uterus): 25.3%
change in vivo at 1 mg/kg (uterus): 9.2%
change in vivo at 10 mg/kg (uterus): 5.9%
Uterine EPO (V. max) ([1]; 0.1 mg/kg): 7.8
Uterine EPO (V. max) ([1]; 1.0 mg/kg): 3.0
Uterine EPO (V. max) ([1]; 10.0 mg/kg): 2.1
inhibition in vivo at 0.1 mg/kg (Serum Cholesterol): 72.8%
inhibition in vivo at 1 mg/kg (Serum Cholesterol): 51%
inhibition in vivo at 10 mg/kg (Serum Cholesterol): 54.6%
Distal Femur Metaphysis (X-ray Image Analysis-Gray Score), percent protection relative to ovariectomy (Distal Femur Metaphysis; 0.01 mg/kg): 14.2%
Distal Femur Metaphysis (X-ray Image Analysis-Gray Score), percent protection relative to ovariectomy (Distal Femur Metaphysis; 0.1 mg/kg): 49.8%
Distal Femur Metaphysis (X-ray Image Analysis-Gray Score), percent protection relative to ovariectomy (Distal Femur Metaphysis; 1.0 mg/kg): 51.7%
Distal Femur Metaphysis (X-ray Image Analysis-Gray Score), percent protection relative to ovariectomy (Distal Femur Metaphysis; 10.0 mg/kg): 48.2%
IC50 [2]: 0.2 nM

SMILES: CCCCS(=O)(=O)Oc1ccc2c(c1)OC(c1ccc(OCCN3CCCCC3)cc1)c1c-2sc2cc(OS(=O)(=O)CCCC)ccc12 (stereo not drawn) [Example 5, 3,9-Bis(1-butylsulfonyloxy)-6-[4-[2-(1-piperidinyl)ethoxy]phenyl]-6-H-[1]benzothieno[3,2-c][1]benzopyran]
change in vivo at 0.1 mg/kg (uterus): -5.1%
change in vivo at 1 mg/kg (uterus): 18.6%
Uterine EPO (V. max) ([1]; 0.1 mg/kg): 4.5
Uterine EPO (V. max) ([1]; 1.0 mg/kg): 4.8
inhibition in vivo at 0.1 mg/kg (Serum Cholesterol): -9%
inhibition in vivo at 1 mg/kg (Serum Cholesterol): 61.3%
IC50 [2]: 1000 nM

SMILES: Oc1ccc2c(c1)OC(c1ccc(OCCN3CCCCC3)cc1)c1c-2oc2cc(O)ccc12 (stereo not drawn) [Example 11, 3,9-Dihydroxy-6-[4-[2-(1-piperidinyl)ethoxy]phenyl]-6-H-benzofuro[3,2-c][1]benzopyran]
change in vivo at 0.1 mg/kg (uterus): -8.8%
change in vivo at 1 mg/kg (uterus): 3%
change in vivo at 10 mg/kg (uterus): -12.6%
Uterine EPO (V. max) ([1]; 0.1 mg/kg): 2.7
Uterine EPO (V. max) ([1]; 1.0 mg/kg): 4.2
Uterine EPO (V. max) ([1]; 10.0 mg/kg): 4.2
inhibition in vivo at 0.1 mg/kg (Serum Cholesterol): 17.4%
inhibition in vivo at 1 mg/kg (Serum Cholesterol): 30.9%
inhibition in vivo at 10 mg/kg (Serum Cholesterol): 36.3%
IC50 [2]: 0.7 nM

More lines, main results first:

IC50 [2]: 3 nM
SMILES: O=C(Oc1ccc2c(c1)OC(c1ccc(OCCN3CCCCC3)cc1)c1c-2sc2cc(OC(=O)c3ccccc3)ccc12)c1ccccc1 (stereo not drawn) [Example 3, 3,9-Bis(benzoyloxy)-6-[4-[2-(1-piperidinyl)ethoxy]phenyl]-6-H-[1]benzothieno[3,2-c][1]benzopyran]
change in vivo at 0.1 mg/kg (uterus): 32.5%
change in vivo at 1 mg/kg (uterus): 7.4%
Uterine EPO (V. max) ([1]; 0.1 mg/kg): 4.2
Uterine EPO (V. max) ([1]; 1.0 mg/kg): 3.0
inhibition in vivo at 0.1 mg/kg (Serum Cholesterol): 51.5%
inhibition in vivo at 1 mg/kg (Serum Cholesterol): 50.8%

IC50 [2]: 5 nM
SMILES: CC(C)(C)C(=O)Oc1ccc2c(c1)OC(c1ccc(OCCN3CCCCC3)cc1)c1c-2sc2cc(OC(=O)C(C)(C)C)ccc12 (stereo not drawn) [Example 4, 3,9-Bis(pivaloyloxy)-6-[4-[2-(1-piperidinyl)ethoxy]phenyl]-6-H-[1]benzothieno[3,2-c][1]benzopyran]
change in vivo at 0.1 mg/kg (uterus): 10%
change in vivo at 1 mg/kg (uterus): 15.3%
Uterine EPO (V. max) ([1]; 0.1 mg/kg): 3.3
Uterine EPO (V. max) ([1]; 1.0 mg/kg): 3.3
inhibition in vivo at 0.1 mg/kg (Serum Cholesterol): 62.6%
inhibition in vivo at 1 mg/kg (Serum Cholesterol): 48.2%
